Results taken from patent publication US12606568B2, “SMARCA degraders and uses thereof” (Kymera Therapeutics, Inc., priority 2020, dated 2026).

Assays:
Type in all cases: cell-based
[1] = target: T1, SMARCA2 (Homo sapiens, UniProt P51531); assay: MSD SMARCA2 degradation in A549 cell line; set-up: endogenous in cells; conditions: for Dmax: A549, A549 cells; for Dmax / DC50: 24 h; for DC50 / SMARCA2 MSD A549 degradation 24 h: Average Dmax %: A549 cells; for DC50: read-out: SMARCA2 MSD A549 degradation 24 h: Average external-Abs DC50
Procedure, shortened: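 A549 cells treated 24 h with compound, 3-fold series 1000 nM down to 0.152 nM plus DMSO. RIPA lysates captured on MSD plates, probed with rabbit anti-SMARCA2/BRM (1 µg/ml) then SULFO-TAG anti-rabbit, electrochemiluminescence read. DC50 and 24 h Dmax reported as letter bins.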

[2] = target: T2, SMARCA4 (Homo sapiens, UniProt P51532); assay: SMARCA4 Western blot MV4-11 degradation; conditions: for Dmax: MV4-11, MV4-11 cells, read-out: SMARCA4 MSD MV411 degradation 24 h: average Dmax %; for Dmax / DC50: 24 h; for DC50 / SMARCA4 MSD MV411 degradation 24 h: average Dmax %: MV4-11 cells; for DC50: read-out: SMARCA4 MSD MV411 degradation 24 h: Mean external-Abs DC50
T2 construct: SMARCA2 and SMARCA4 protein degradation in MV4-11 cells; endogenous in cells; host or cells: MV4-11

[3] = target: T1, SMARCA2; assay: SMARCA2 Western blot MV4-11 degradation; set-up: SMARCA2 and SMARCA4 protein degradation in MV4-11 cells; endogenous in cells; host or cells: MV4-11; conditions: for Dmax: MV4-11, MV4-11 cells, read-out: SMARCA2 MSD MV411 degradation 24 h: average Dmax %; for Dmax / DC50: 24 h; for DC50 / SMARCA2 MSD MV411 degradation 24 h: average Dmax %: MV4-11 cells; for DC50: read-out: SMARCA2 MSD MV411 degradation 24 h: Mean external-Abs DC50

T2 sequence (P51532 whole entry): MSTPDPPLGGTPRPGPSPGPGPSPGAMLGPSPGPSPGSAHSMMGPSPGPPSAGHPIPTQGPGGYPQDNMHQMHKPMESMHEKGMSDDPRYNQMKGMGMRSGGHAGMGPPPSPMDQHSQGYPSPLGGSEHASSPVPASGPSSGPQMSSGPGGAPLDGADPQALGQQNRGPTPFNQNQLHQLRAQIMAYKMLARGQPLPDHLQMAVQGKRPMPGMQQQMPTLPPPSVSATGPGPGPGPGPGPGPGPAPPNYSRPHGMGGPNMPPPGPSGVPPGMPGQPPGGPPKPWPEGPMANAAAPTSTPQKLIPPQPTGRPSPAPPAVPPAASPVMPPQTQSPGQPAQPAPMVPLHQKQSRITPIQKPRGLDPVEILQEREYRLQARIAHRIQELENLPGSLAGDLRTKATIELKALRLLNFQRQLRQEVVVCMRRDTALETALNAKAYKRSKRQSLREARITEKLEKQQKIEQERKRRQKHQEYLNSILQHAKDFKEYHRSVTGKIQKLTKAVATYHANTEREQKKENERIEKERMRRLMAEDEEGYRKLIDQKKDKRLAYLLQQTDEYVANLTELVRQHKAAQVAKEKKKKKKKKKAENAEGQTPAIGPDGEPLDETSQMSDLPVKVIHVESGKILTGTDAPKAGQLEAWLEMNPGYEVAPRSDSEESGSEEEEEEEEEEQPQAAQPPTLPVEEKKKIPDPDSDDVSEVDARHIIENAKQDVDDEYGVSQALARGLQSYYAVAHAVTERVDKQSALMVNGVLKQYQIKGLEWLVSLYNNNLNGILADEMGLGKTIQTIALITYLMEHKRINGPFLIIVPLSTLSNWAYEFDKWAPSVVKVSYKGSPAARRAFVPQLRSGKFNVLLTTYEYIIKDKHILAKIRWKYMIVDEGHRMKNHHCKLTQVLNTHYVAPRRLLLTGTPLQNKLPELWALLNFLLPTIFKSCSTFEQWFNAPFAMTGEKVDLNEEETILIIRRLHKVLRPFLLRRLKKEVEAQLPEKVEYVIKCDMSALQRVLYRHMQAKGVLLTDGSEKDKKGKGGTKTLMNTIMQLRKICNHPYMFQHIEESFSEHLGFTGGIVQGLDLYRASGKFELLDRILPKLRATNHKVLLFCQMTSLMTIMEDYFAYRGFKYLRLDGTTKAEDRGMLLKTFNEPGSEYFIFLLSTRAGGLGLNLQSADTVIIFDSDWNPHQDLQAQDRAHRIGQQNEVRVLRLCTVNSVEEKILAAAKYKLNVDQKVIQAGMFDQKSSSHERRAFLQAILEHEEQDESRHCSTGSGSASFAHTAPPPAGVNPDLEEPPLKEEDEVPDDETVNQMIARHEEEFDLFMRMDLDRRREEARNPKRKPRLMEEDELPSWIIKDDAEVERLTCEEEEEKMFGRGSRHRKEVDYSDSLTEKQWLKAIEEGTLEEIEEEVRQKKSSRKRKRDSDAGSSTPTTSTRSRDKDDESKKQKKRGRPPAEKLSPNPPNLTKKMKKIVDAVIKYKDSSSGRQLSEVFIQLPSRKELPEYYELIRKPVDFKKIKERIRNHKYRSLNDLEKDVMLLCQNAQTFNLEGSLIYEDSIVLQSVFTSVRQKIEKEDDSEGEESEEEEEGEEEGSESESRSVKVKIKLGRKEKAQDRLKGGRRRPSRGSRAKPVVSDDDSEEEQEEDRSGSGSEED
T1 sequence (P51531 whole entry): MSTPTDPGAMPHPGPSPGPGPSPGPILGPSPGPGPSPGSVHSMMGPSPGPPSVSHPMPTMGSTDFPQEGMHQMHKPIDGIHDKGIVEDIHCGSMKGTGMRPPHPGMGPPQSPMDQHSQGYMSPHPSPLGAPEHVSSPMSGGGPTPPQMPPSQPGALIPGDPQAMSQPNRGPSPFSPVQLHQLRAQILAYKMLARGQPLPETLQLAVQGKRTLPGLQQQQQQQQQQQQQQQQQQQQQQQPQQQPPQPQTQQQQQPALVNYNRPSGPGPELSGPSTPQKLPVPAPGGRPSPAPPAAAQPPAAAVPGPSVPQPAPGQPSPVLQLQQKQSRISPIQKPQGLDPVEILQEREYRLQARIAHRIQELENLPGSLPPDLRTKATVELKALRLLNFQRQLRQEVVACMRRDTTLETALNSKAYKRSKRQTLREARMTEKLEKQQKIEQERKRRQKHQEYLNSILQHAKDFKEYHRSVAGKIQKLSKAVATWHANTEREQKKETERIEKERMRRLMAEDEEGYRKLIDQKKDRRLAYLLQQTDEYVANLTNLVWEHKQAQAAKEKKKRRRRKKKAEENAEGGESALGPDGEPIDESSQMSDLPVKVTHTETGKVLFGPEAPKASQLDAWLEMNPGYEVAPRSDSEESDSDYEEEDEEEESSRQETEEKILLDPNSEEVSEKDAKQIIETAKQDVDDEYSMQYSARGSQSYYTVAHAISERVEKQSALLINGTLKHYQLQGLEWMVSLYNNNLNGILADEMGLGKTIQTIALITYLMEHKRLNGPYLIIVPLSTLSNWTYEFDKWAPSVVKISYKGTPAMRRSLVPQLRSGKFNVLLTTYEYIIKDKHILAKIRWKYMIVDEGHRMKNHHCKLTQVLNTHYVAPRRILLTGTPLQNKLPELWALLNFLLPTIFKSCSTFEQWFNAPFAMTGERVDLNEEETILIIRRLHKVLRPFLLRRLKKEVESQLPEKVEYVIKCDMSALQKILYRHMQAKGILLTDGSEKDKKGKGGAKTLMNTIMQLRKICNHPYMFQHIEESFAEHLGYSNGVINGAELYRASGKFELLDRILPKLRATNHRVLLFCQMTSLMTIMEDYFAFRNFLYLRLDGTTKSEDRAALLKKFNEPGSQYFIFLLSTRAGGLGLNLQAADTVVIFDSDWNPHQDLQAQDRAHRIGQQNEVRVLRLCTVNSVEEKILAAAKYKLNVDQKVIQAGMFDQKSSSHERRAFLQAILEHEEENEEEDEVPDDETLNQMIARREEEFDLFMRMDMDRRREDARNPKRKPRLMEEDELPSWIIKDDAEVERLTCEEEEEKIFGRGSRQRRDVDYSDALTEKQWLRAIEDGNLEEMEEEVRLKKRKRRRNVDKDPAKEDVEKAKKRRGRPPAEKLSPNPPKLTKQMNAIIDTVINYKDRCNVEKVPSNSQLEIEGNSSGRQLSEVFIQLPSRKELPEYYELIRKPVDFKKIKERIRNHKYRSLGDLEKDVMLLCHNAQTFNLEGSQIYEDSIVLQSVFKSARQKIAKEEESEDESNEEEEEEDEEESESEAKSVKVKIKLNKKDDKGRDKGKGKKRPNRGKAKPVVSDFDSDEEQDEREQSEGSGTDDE

Row | Compound | Dmax [1] [%] | DC50 [1] [nM] | Dmax [2] [%] | DC50 [2] [nM] | Dmax [3] [%] | DC50 [3] [nM] | SMARCA2 MSD A549 degradation 24 h: Average Dmax % [1] | SMARCA4 MSD MV411 degradation 24 h: average Dmax % [2] | SMARCA2 MSD MV411 degradation 24 h: average Dmax % [3]
1 | Cc1ncsc1-c1ccc(CNC(=O)[C@@H]2C[C@@H](O)CN2C(=O)[C@@H](NC(=O)C2CC3(C2)CN(C2CCN(c4cnc(N5C6CCC5CN(c5cc(-c7ccccc7O)nnc5N)C6)nc4)CC2)C3)C(C)(C)C)cc1 [I-10, 2-(1-(2-(3-(3-amino-6-(2-hydroxyphenyl)pyridazin-4-yl)-3,8-diazabicyclo[3.2.1]octan-8-yl)pyrimidin-5-yl)piperidin-4-yl)-N—((S)-1-((2S,4R)-4-hydroxy-2-((4-(4-methylthiazol-5-yl)benzyl)carbamoyl)pyrrolidin-1-yl)-3,3-dimethyl-1-oxobutan-2-yl)-2-azaspiro[3.3]heptane-6-carboxamide] | 70 to 90 | 501 to 1000 | < 50 | > 1000 | 70 to 90 | < 100 | – | – | –
2 | Cc1ncsc1-c1ccc(CNC(=O)[C@@H]2C[C@@H](O)CN2C(=O)[C@@H](NC(=O)[C@H]2CC3(C2)C[C@H](N2CCC(Oc4ccc(N5C6CCC5CN(c5cc(-c7ccccc7O)nnc5N)C6)cn4)CC2)C3)C(C)(C)C)cc1 (some centres unmarked) [I-40] | – | > 1000 | – | > 1000 | – | < 100 | B (B (>70-90% o degradation)) | A (A (>90% degradation)) | B (B (>70-90% degradation))
3 | Cc1nccn1-c1ccc(CNC(=O)[C@@H]2C[C@@H](O)CN2C(=O)[C@@H](NC(=O)[C@H]2CC3(C2)C[C@H](N2CCC(c4cnc(N5C6CCC5CN(c5cc(-c7ccccc7O)nnc5N)C6)nc4)CC2)C3)C(C)(C)C)cc1 (stereo partly drawn) [I-33, (2S,4R)-1-((2S)-2-(6-(4-(2-(3-(3-amino-6-(2-hydroxyphenyl)pyridazin-4-yl)-3,8-diazabicyclo[3.2.1]octan-8-yl)pyrimidin-5-yl)piperidin-1-yl)spiro[3.3]heptane-2-carboxamido)-3,3-dimethylbutanoyl)-4-hydroxy-N-(4-(2-methyl-1H-imidazol-1-yl)benzyl)pyrrolidine-2-carboxamide] | < 50 | – | < 50 | > 1000 | < 50 | 100 to 500 | – | – | –
4 | Cc1ncsc1-c1ccc(C2(NC(=O)[C@@H]3C[C@@H](O)CN3C(=O)[C@@H](NC(=O)[C@H]3CC4(C3)C[C@H](N3CCC(c5cnc(N6C7CCC6CN(c6cc(-c8ccccc8O)nnc6N)C7)nc5)CC3)C4)C(C)(C)C)CC2)cc1 (single isomer, unassigned) [I-3] | > 90 | < 100 | 70 to 90 | < 100 | > 90 | < 100 | – | – | –
5 | Cc1ncsc1-c1ccc(CNC(=O)[C@@H]2C[C@@H](O)CN2C(=O)[C@@H](NC(=O)C2CC3(C2)CC(N2CCC(Oc4cc(N5C6CCC5CN(c5cc(-c7ccccc7O)nnc5N)C6)ccn4)CC2)C3)C(C)(C)C)cc1 (stereo partly drawn) [I-38, (2S,4R)-1-((2S)-2-(6-(4-((4-(3-(3-amino-6-(2-hydroxyphenyl)pyridazin-4-yl)-3,8-diazabicyclo[3.2.1]octan-8-yl)pyridin-2-yl)oxy)piperidin-1-yl)spiro[3.3]heptane-2-carboxamido)-3,3-dimethylbutanoyl)-4-hydroxy-N-(4-(4-methylthiazol-5-yl)benzyl)pyrrolidine-2-carboxamide] | 70 to 90 | > 1000 | > 90 | > 1000 | < 50 | > 1000 | – | – | –
6 | Cc1ncsc1-c1ccc(C2(NC(=O)[C@@H]3C[C@@H](O)CN3C(=O)[C@@H](NC(=O)[C@H]3CC4(C3)C[C@H](N3CCC(c5cnc(N6C7CCC6CN(c6cc(-c8ccccc8O)nnc6N)C7)nc5)CC3)C4)C(C)(C)C)CC2)cc1 (single isomer, unassigned) [I-4] | – | 100 to 500 | – | < 100 | – | < 100 | A (A (>90% o degradation)) | A (A (>90% degradation)) | A (A (>90% degradation))
7 | Cc1ncsc1-c1ccc(CNC(=O)[C@@H]2C[C@@H](O)CN2C(=O)[C@@H](NC(=O)C2CC3(C2)CC(N2CCC(COc4ccc(N5C6CCC5CN(c5cc(-c7ccccc7O)nnc5N)C6)cn4)CC2)C3)C(C)(C)C)cc1 (stereo partly drawn) [I-41, (2S,4R)-1-((2S)-2-(6-(4-(((5-(3-(3-amino-6-(2-hydroxyphenyl)pyridazin-4-yl)-3,8-diazabi-cyclo[3.2.1]octan-8-yl)pyridin-2-yl)oxy)methyl)piperidin-1-yl)spiro[3.3]heptane-2-carbox-amido)-3,3-dimethylbutanoyl)-4-hydroxy-N-(4-(4-methylthiazol-5-yl)benzyl)pyrrolidine-2-carboxamide] | 50 to 70 | > 1000 | > 90 | > 1000 | < 50 | > 1000 | – | – | –
8 | Cc1ncsc1-c1ccc(CNC(=O)[C@@H]2C[C@@H](O)CN2C(=O)[C@@H](NC(=O)[C@H]2CC3(C2)C[C@H](N2CC4(CN(c5cnc(N6C7CCC6CN(c6cc(-c8ccccc8O)nnc6N)C7)nc5)C4)C2)C3)C(C)(C)C)cc1 (stereo partly drawn) [I-11, (2S,4R)-1-((2S)-2-(6-(6-(2-(3-(3-amino-6-(2-hydroxyphenyl)pyridazin-4-yl)-3,8-diazabicyclo[3.2.1]octan-8-yl)pyrimidin-5-yl)-2,6-diazaspiro[3.3]heptan-2-yl)spiro[3.3]heptane-2-carboxamido)-3,3-dimethylbutanoyl)-4-hydroxy-N-(4-(4-methylthiazol-5-yl)benzyl)pyrrolidine-2-carboxamide] | 70 to 90 | 100 to 500 | < 50 | > 1000 | 70 to 90 | < 100 | – | – | –
9 | Cc1ncsc1-c1ccc(CNC(=O)[C@@H]2C[C@@H](O)CN2C(=O)[C@@H](NC(=O)[C@H]2CCC3(CC2)C[C@H](N2CCC(c4cnc(N5C6CCC5CN(c5cc(-c7ccccc7O)nnc5N)C6)nc4)CC2)C3)C(C)(C)C)cc1 (stereo partly drawn) [I-43, (2S,4R)-1-((2S)-2-(2-(4-(2-(3-(3-amino-6-(2-hydroxyphenyl)pyridazin-4-yl)-3,8-diazabicyclo[3.2.1]octan-8-yl)pyrimidin-5-yl)piperidin-1-yl)spiro[3.5]nonane-7-carboxamido)-3,3-dimethylbutanoyl)-4-hydroxy-N-(4-(4-methylthiazol-5-yl)benzyl)-pyrrolidine-2-carboxamide] | – | 100 to 500 | – | > 1000 | – | < 100 | – | – | –
10 | Cc1ncsc1-c1ccc(CNC(=O)[C@@H]2C[C@@H](O)CN2C(=O)[C@@H](NC(=O)[C@H]2CC3(C2)C[C@H](N2CCN(c4cnc(N5C6CCC5CN(c5cc(-c7ccccc7O)nnc5N)C6)nc4)CC2)C3)C(C)(C)C)cc1 (single isomer, unassigned) [I-8] | 70 to 90 | < 100 | < 50 | > 1000 | 70 to 90 | < 100 | – | – | –
11 | Cc1ncsc1-c1ccc(CNC(=O)[C@@H]2C[C@@H](O)CN2C(=O)[C@H](c2cc(OCCCN3CCC(c4cnc(N5C6CCC5CN(c5cc(-c7ccccc7O)nnc5N)C6)nc4)CC3)no2)C(C)C)cc1 [I-52, (2S,4R)-1-((2S)-2-(3-(3-(4-(2-(3-(3-amino-6-(2-hydroxyphenyl)pyridazin-4-yl)-3,8-diazabicyclo[3.2.1]octan-8-yl)pyrimidin-5-yl)piperidin-1-yl)propoxy)isoxazol-5-yl)-3-methylbutanoyl)-4-hydroxy-N-(4-(4-methylthiazol-5-yl)benzyl)pyrrolidine-2-carboxamide] | > 90 | < 100 | > 90 | < 100 | > 90 | < 100 | – | – | –
12 | Cc1ncsc1-c1ccc(CNC(=O)[C@@H]2C[C@@H](O)CN2C(=O)[C@@H](NC(=O)N2CC3(CC(N4CCC(c5cnc(N6C7CCC6CN(c6cc(-c8ccccc8O)nnc6N)C7)nc5)CC4)C3)C2)C(C)(C)C)cc1 [I-58, 6-(4-(2-(3-(3-amino-6-(2-hydroxyphenyl)pyridazin-4-yl)-3,8-diazabicyclo[3.2.1]octan-8-yl)pyrimidin-5-yl)piperidin-1-yl)-N—((S)-1-((2S,4R)-4-hydroxy-2-((4-(4-methylthiazol-5-yl)benzyl)carbamoyl)pyrrolidin-1-yl)-3,3-dimethyl-1-oxobutan-2-yl)-2-azaspiro[3.3]heptane-2-carboxamide] | > 90 | < 100 | 50 to 70 | 100 to 500 | > 90 | < 100 | – | – | –
13 | Cc1ncsc1-c1ccc(CNC(=O)[C@@H]2C[C@@H](O)CN2C(=O)C(c2cc(N3CCC(N4CCC(c5cnc(N6C7CCC6CN(c6cc(-c8ccccc8O)nnc6N)C7)nc5)CC4)CC3)no2)C(C)C)cc1 (mixture of isomers) [I-47, (2S,4R)-1-(2-(3-(4-(2-(3-(3-amino-6-(2-hydroxyphenyl)pyridazin-4-yl)-3,8-diazabicyclo[3.2.1]octan-8-yl)pyrimidin-5-yl)-[1,4′-bipiperidin]-1′-yl)isoxazol-5-yl)-3-methylbutanoyl)-4-hydroxy-N-(4-(4-methylthiazol-5-yl)benzyl)pyrrolidine-2-carboxamide] | > 90 | < 100 | > 90 | < 100 | > 90 | < 100 | – | – | –
